Measurements as given in US10131652B2, “Pyrimidinyloxy benzene derivatives as herbicides” (E. I. DU PONT DE NEMOURS AND COMPANY, priority 2014, dated 2018).
Like-named read-outs stand apart in the source and are kept apart here.

Key:
Format in all cases: in vivo
[1] = system: small-flower umbrella sedge (Cyperus difformis); test: Test D flooded paddy test plant response; conditions: Flood (flooded paddy test), visual rating on scale 0 to 100 (0 no effect, 100 complete control), 13 to 15 days
How it was run: (§1)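 Plants at 2-leaf stage in pots flooded 3 cm above soil; compounds applied directly into paddy water, depth kept throughout. After 13-15 days in greenhouse, visual rating against controls on 0-100 scale (100 = complete control).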

[2] = system: barnyardgrass (Echinochloa crus-galli); test: Test D flooded paddy test plant response; conditions: Flood (flooded paddy test), visual rating on scale 0 to 100 (0 no effect, 100 complete control), 13 to 15 days
How it was run: as §1

rice (Oryza sativa) = test: Test D flooded paddy test plant response; conditions: Flood (flooded paddy test), visual rating on scale 0 to 100 (0 no effect, 100 complete control), 13 to 15 days
How it was run: as §1

[3] = system: ducksalad (Heteranthera limosa); test: Test D flooded paddy test plant response; conditions: Flood (flooded paddy test), visual rating on scale 0 to 100 (0 no effect, 100 complete control), 13 to 15 days
How it was run: as §1

Horseweed = test: Test F postemergence plant response; conditions: scale 0 to 100
[4] = system: wild mustard (Sinapis arvensis); test: Test E pre-/postemergence plant response; conditions: Brassica, scale 0 to 100, read-out: Plant response rating, Mustard, Wild; for pest or weed control at 16 g/ha: 16 g ai/ha; for pest or weed control at 31 g/ha: 31 g ai/ha; for pest or weed control at 62 g/ha: 62 g ai/ha; for pest or weed control at 125 g/ha: 125 g ai/ha
How it was run: (§2)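 Pre-emergence: seeds sown in silt loam soil and sprayed with test chemicals in a non-phytotoxic solvent/surfactant mix. Post-emergence: plants at 2–18 cm (1- to 4-leaf stage) in peat/vermiculite medium treated with the same formulation. Visual rating versus controls after 7–21 days, 0 (no effect) to 100 (complete control).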

[5] = system: blackgrass (Alopecurus myosuroides); test: Test E pre-/postemergence plant response; conditions: scale 0 to 100, read-out: Plant response rating, Blackgrass; for pest or weed control at 16 g/ha: 16 g ai/ha; for pest or weed control at 31 g/ha: 31 g ai/ha; for pest or weed control at 62 g/ha: 62 g ai/ha; for pest or weed control at 125 g/ha: 125 g ai/ha
How it was run: as §2

[6] = system: chamomile (scentless chamomile, Matricaria inodora); test: Test E pre-/postemergence plant response; conditions: Tripleurospermum inodorum, scale 0 to 100, read-out: Plant response rating, Chamomile; for pest or weed control at 16 g/ha: 16 g ai/ha; for pest or weed control at 31 g/ha: 31 g ai/ha; for pest or weed control at 62 g/ha: 62 g ai/ha; for pest or weed control at 125 g/ha: 125 g ai/ha
How it was run: as §2

[7] = system: Italian ryegrass (Lolium multiflorum); test: Test E pre-/postemergence plant response; conditions: scale 0 to 100, read-out: Plant response rating, Ryegrass, Italian; for pest or weed control at 16 g/ha: 16 g ai/ha; for pest or weed control at 31 g/ha: 31 g ai/ha; for pest or weed control at 62 g/ha: 62 g ai/ha; for pest or weed control at 125 g/ha: 125 g ai/ha
How it was run: as §2

[8] = system: Russian thistle (Salsola iberica); test: Test E pre-/postemergence plant response; conditions: scale 0 to 100
How it was run: as §2

Fc1cccc(Oc2ncc(Cl)cn2)c1-c1cc(C(F)F)on1 [Compound 55, 5-chloro-2-[2-[5-(difluoromethyl)-3-isoxazolyl]-3-fluorophenoxy]pyrimidine]
Plant response rating, Sedge, Umbrella ([1]; 31 g ai/ha): 75 | Plant response rating, Sedge, Umbrella ([1]; 62 g ai/ha): 75 | Plant response rating, Sedge, Umbrella ([1]; 125 g ai/ha): 85 | Plant response rating, Sedge, Umbrella ([1]; 250 g ai/ha): 100 | Plant response rating, Barnyardgrass ([2]; 31 g ai/ha): 0 | Plant response rating, Barnyardgrass ([2]; 62 g ai/ha): 0 | Plant response rating, Barnyardgrass ([2]; 125 g ai/ha): 10 | Plant response rating, Barnyardgrass ([2]; 250 g ai/ha): 30 | Plant response rating, Rice (rice (Oryza sativa); 31 g ai/ha): 0 | Plant response rating, Rice (rice (Oryza sativa); 62 g ai/ha): 0 | Plant response rating, Rice (rice (Oryza sativa); 125 g ai/ha): 0 | Plant response rating, Rice (rice (Oryza sativa); 250 g ai/ha): 0 | Plant response rating, Ducksalad ([3]; 31 g ai/ha): 75 | Plant response rating, Ducksalad ([3]; 62 g ai/ha): 80 | Plant response rating, Ducksalad ([3]; 125 g ai/ha): 85 | Plant response rating, Ducksalad ([3]; 250 g ai/ha): 90 | Plant response rating, Horseweed (Horseweed; 31 g ai/ha Postemergence): 15 | Plant response rating, Horseweed (Horseweed; 62 g ai/ha Postemergence): 20 | pest or weed control at 16 g/ha ([4]; post-emergence, Postemergence): 70% | pest or weed control at 31 g/ha ([4]; post-emergence, Postemergence): 85% | pest or weed control at 62 g/ha ([4]; post-emergence, Postemergence): 95% | pest or weed control at 125 g/ha ([4]; post-emergence, Postemergence): 95% | pest or weed control at 16 g/ha ([4]; pre-emergence, Preemergence): 80% | pest or weed control at 31 g/ha ([4]; pre-emergence, Preemergence): 100% | pest or weed control at 62 g/ha ([4]; pre-emergence, Preemergence): 100% | pest or weed control at 125 g/ha ([4]; pre-emergence, Preemergence): 100% | pest or weed control at 16 g/ha ([5]; post-emergence, Postemergence): 5% | pest or weed control at 31 g/ha ([5]; post-emergence, Postemergence): 10% | pest or weed control at 62 g/ha ([5]; post-emergence, Postemergence): 20% | pest or weed control at 125 g/ha ([5]; post-emergence, Postemergence): 40% | pest or weed control at 16 g/ha ([5]; pre-emergence, Preemergence): 0% | pest or weed control at 31 g/ha ([5]; pre-emergence, Preemergence): 15% | pest or weed control at 62 g/ha ([5]; pre-emergence, Preemergence): 60% | pest or weed control at 125 g/ha ([5]; pre-emergence, Preemergence): 100% | pest or weed control at 16 g/ha ([6]; post-emergence, Postemergence): 5% | pest or weed control at 31 g/ha ([6]; post-emergence, Postemergence): 5% | pest or weed control at 62 g/ha ([6]; post-emergence, Postemergence): 5% | pest or weed control at 125 g/ha ([6]; post-emergence, Postemergence): 5% | pest or weed control at 16 g/ha ([7]; post-emergence, Postemergence): 20% | pest or weed control at 31 g/ha ([7]; post-emergence, Postemergence): 20% | pest or weed control at 62 g/ha ([7]; post-emergence, Postemergence): 15% | pest or weed control at 125 g/ha ([7]; post-emergence, Postemergence): 20% | pest or weed control at 16 g/ha ([7]; pre-emergence, Preemergence): 0% | pest or weed control at 31 g/ha ([7]; pre-emergence, Preemergence): 0% | pest or weed control at 62 g/ha ([7]; pre-emergence, Preemergence): 50% | pest or weed control at 125 g/ha ([7]; pre-emergence, Preemergence): 50%

Fc1cccc(Oc2ncc(Cl)cn2)c1-c1cc(C(F)F)no1 [Compound 144, 5-chloro-2-[2-[3-(difluoromethyl)-5-isoxazolyl]-3-fluorophenoxy]pyrimidine]
Plant response rating, Sedge, Umbrella ([1]; 31 g ai/ha): 65 | Plant response rating, Sedge, Umbrella ([1]; 62 g ai/ha): 80 | Plant response rating, Sedge, Umbrella ([1]; 125 g ai/ha): 95 | Plant response rating, Sedge, Umbrella ([1]; 250 g ai/ha): 95 | Plant response rating, Barnyardgrass ([2]; 31 g ai/ha): 0 | Plant response rating, Barnyardgrass ([2]; 62 g ai/ha): 0 | Plant response rating, Barnyardgrass ([2]; 125 g ai/ha): 15 | Plant response rating, Barnyardgrass ([2]; 250 g ai/ha): 35 | Plant response rating, Rice (rice (Oryza sativa); 31 g ai/ha): 0 | Plant response rating, Rice (rice (Oryza sativa); 62 g ai/ha): 15 | Plant response rating, Rice (rice (Oryza sativa); 125 g ai/ha): 25 | Plant response rating, Rice (rice (Oryza sativa); 250 g ai/ha): 40 | Plant response rating, Ducksalad ([3]; 31 g ai/ha): 75 | Plant response rating, Ducksalad ([3]; 62 g ai/ha): 85 | Plant response rating, Ducksalad ([3]; 125 g ai/ha): 90 | Plant response rating, Ducksalad ([3]; 250 g ai/ha): 100 | Plant response rating, Horseweed (Horseweed; 16 g ai/ha Postemergence): 0 | Plant response rating, Horseweed (Horseweed; 31 g ai/ha Postemergence): 0 | Plant response rating, Horseweed (Horseweed; 62 g ai/ha Postemergence): 10 | Plant response rating, Horseweed (Horseweed; 125 g ai/ha Postemergence): 25 | pest or weed control at 16 g/ha ([4]; post-emergence, Postemergence): 100% | pest or weed control at 31 g/ha ([4]; post-emergence, Postemergence): 100% | pest or weed control at 62 g/ha ([4]; post-emergence, Postemergence): 100% | pest or weed control at 125 g/ha ([4]; post-emergence, Postemergence): 100% | pest or weed control at 16 g/ha ([4]; pre-emergence, Preemergence): 90% | pest or weed control at 31 g/ha ([4]; pre-emergence, Preemergence): 100% | pest or weed control at 62 g/ha ([4]; pre-emergence, Preemergence): 100% | pest or weed control at 125 g/ha ([4]; pre-emergence, Preemergence): 100% | pest or weed control at 16 g/ha ([5]; post-emergence, Postemergence): 25% | pest or weed control at 31 g/ha ([5]; post-emergence, Postemergence): 50% | pest or weed control at 62 g/ha ([5]; post-emergence, Postemergence): 60% | pest or weed control at 125 g/ha ([5]; post-emergence, Postemergence): 85% | pest or weed control at 16 g/ha ([5]; pre-emergence, Preemergence): 15% | pest or weed control at 31 g/ha ([5]; pre-emergence, Preemergence): 75% | pest or weed control at 62 g/ha ([5]; pre-emergence, Preemergence): 98% | pest or weed control at 125 g/ha ([5]; pre-emergence, Preemergence): 100% | Plant response rating, Russian Thistle ([8]; 16 g ai/ha Postemergence): 85 | Plant response rating, Russian Thistle ([8]; 16 g ai/ha Preemergence): 15 | Plant response rating, Russian Thistle ([8]; 31 g ai/ha Postemergence): 90 | Plant response rating, Russian Thistle ([8]; 31 g ai/ha Preemergence): 65 | Plant response rating, Russian Thistle ([8]; 62 g ai/ha Postemergence): 95 | Plant response rating, Russian Thistle ([8]; 62 g ai/ha Preemergence): 100 | Plant response rating, Russian Thistle ([8]; 125 g ai/ha Postemergence): 98 | Plant response rating, Russian Thistle ([8]; 125 g ai/ha Preemergence): 100 | pest or weed control at 16 g/ha ([6]; post-emergence, Postemergence): 80% | pest or weed control at 31 g/ha ([6]; post-emergence, Postemergence): 75% | pest or weed control at 62 g/ha ([6]; post-emergence, Postemergence): 80% | pest or weed control at 125 g/ha ([6]; post-emergence, Postemergence): 95% | pest or weed control at 16 g/ha ([6]; pre-emergence, Preemergence): 15% | pest or weed control at 31 g/ha ([6]; pre-emergence, Preemergence): 20% | pest or weed control at 62 g/ha ([6]; pre-emergence, Preemergence): 100% | pest or weed control at 125 g/ha ([6]; pre-emergence, Preemergence): 100% | pest or weed control at 16 g/ha ([7]; post-emergence, Postemergence): 5% | pest or weed control at 31 g/ha ([7]; post-emergence, Postemergence): 15% | pest or weed control at 62 g/ha ([7]; post-emergence, Postemergence): 40% | pest or weed control at 125 g/ha ([7]; post-emergence, Postemergence): 65% | pest or weed control at 16 g/ha ([7]; pre-emergence, Preemergence): 10% | pest or weed control at 31 g/ha ([7]; pre-emergence, Preemergence): 25% | pest or weed control at 62 g/ha ([7]; pre-emergence, Preemergence): 70% | pest or weed control at 125 g/ha ([7]; pre-emergence, Preemergence): 100%
